Tests used:
[1] = test system: histones H3 and H4; test: acetylated histone Western (HDAC assay) in U937 cells; format: cell-based, human; conditions: 1 mM SB, 100 nM FP
Description: Histone Deacetylase (HDAC) Assay. Acid extraction of proteins from treated cells and detection of acetylated histones H3 and H4 by Western blot analysis was performed per the manufacturer's instructions (Upstate Biotechnology). 10 μg of extract was loaded per lane and separated on pre-cast 4-20% Biorad Gradient Gels.

[2] = test system: HL-60 human promyelocytic leukemia cells; test: morphological assessment of apoptosis; format: cell-based; conditions: 3, 5, or 10 μM ATRA, 80 nM FP
From the text: (§1) Cell culture. The myelomonocytic leukemia cell line U937 was derived from a patient with histiocytic lymphoma and was obtained from American Type Culture Collection. The HL-60 cell line was derived from a patient with acute promyelocytic leukemia as previously described [Grant et al. 1992]. U937 and HL-60 cells were maintained in logarithmic growth phase by culturing in suspension in phenol red-free RPMI-1640 (Life Technologies, Inc., Grand Island, N.Y.) and 10% (v/v) fetal calf serum (Hyclone, Logan, Utah), in a humidified atmosphere (95% air/5% CO2) at 37° C. To obtain antisense-expressing cell lines, U937 cells were transfected by electroporation with a pREP4 vector (Invitrogen; Carlsbad, Calif.) or the pREP4 vector containing the p21^WAF1/CIP1 coding region in an antisense orientation as previously described [Wang et al. 1999]. […]
(§2) Morphological assessment of apoptosis. U937 cells were evaluated for apoptosis by morphological assessment of Wright and Giemsa-stained cytospin preparations. At designated times, cells were transferred to slides by cytocentrifugation, fixed, stained, and evaluated under light microscopy for treatment-induced apoptosis. […] Five or more randomly selected fields, encompassing a total≧500 cells/slide, were evaluated to determine the percentage of apoptotic cells for each treatment condition.

[3] = test system: ERK1/2; test: Western analysis of phosphorylated p44/p42 MAPK in U937 cells; format: cell-based, human; conditions: 10 nM PMA, 100 nM FP, 30 min-6 h
Description: Western analysis. Equal quantities of protein (15 μg/condition for MAPK, 40 μg/condition for cytochrome c, or 25 μg/condition) were separated by SDS-PAGE [underphosporylated pRB (7.5%), poly(ADP-ribose)polymerase or PARP (8.0%), p44/p42 MAPK (10%), p21, p27, procaspase 3 (12%), and cytochrome c (15%)] and electroblotted onto nitrocellulose. Western analysis of p44/p42 MAPK protein was performed according to the manufacturer's instructions (New England Biolabs); otherwise, studies were performed as previously described [Wang et al, 1998]. Briefly, U937 cells (5×10^6) were pelleted by centrifugation, resuspended in 50 μl PBS, lysed by the addition of 2× Laemmli buffer and boiled for 5 min. Proteins were quantified with Coomassie protein assay reagent. Blots were blocked in PBS-T/5% milk, washed twice with PBS-T, and incubated overnight at 4° C. with the appropriate primary antibody. The blots were washed with PBS-T and incubated with a horseradish-peroxidase conjugated secondary antibody diluted appropriately in PBS-T/5% mill. Following incubation, blots were developed by enhanced chemiluminescence exposure to Kodak X-OMAT film (Eastman Kodak Co., Rochester, N.Y.) and reprobed with antibodies directed against actin to control for equal loading of protein.

[4] = test system: U937 human leukemia cells; test: morphological assessment of apoptosis (Wright and Giemsa-stained cytospin); format: cell-based
From the text: as §1, §2

[5] = test system: pRb/E2F complexes; test: pRb immunoprecipitation and EMSA of E2F in U937 cells; format: cell-based, human; conditions: 8 h exposure; 10 nM PMA, 100 nM FP, 1 mM SB
Description: Electrophoretic Mobility Shift Assay (EMSA) and Immunoprecipitation (IP). Whole-cell extracts were prepared as previously described [Bagchi et al. 1990] and EMSA following IP was performed as previously reported [Chellapan et al. 1991]. Whole cell extracts (150 μg) were combined with 4 μl of anti-RB monoclonal antibody (Calbiochem) for the IP. Immunoprecipitated proteins were recovered on Protein A sepharose beads and dissociated by treatment with deoxycholate. The presence of E2F in the IP was monitored by EMSA as previously noted [Yee et al. 1987].
Immunoprecipitation and EMSA. Whole-cell extracts were prepared by hypotonic shock followed by salt extraction, as described previously (Chellappan et al., 1991). Portions (50 to 200 μg) of whole-cell extracts were treated with 5 μl of the appropriate primary antibody in a volume of 100 μl at 4° C. for 1 h. Then, 3 mg of protein A-Sepharose or protein G-Sepharose in a 100-μl volume was added and incubated for an additional hour. The binding was performed in a buffer containing 20 mM HEPES (pH 7.9), 40 mM KCl, 1 mM MgCl2, 0.1 mM EGTA, 0.1 mM EDTA, 0.1 mM DTT, 0.1 mM NaF, 0.1 mM Na3VO4, 0.5% NP-40, and 3 mg of BSA per ml. The beads were washed six times with 600 μl of the same buffer and boiled in 20 μl of SDS sample buffer. […] The gel was dried, and the bands were detected by autoradiography.

Compound | acetylation of histones H3 and H4 [1] | % apoptosis [2] | phosphorylation (activation) of ERK1/2 [3] | percentage of apoptotic cells ([4]; FP concentrations ≦100 nM, regardless of treatment interval (6-24 h)) [%] | induction of apoptosis ([4]; FP concentrations ≧200 nM, chronic exposures (12 or 24 h)) | E2F binding to labeled probe after pRb immunoprecipitation [5]
CCCC(=O)[O-].[Na+] [SB, sodium butyrate] | Acetylation of H3 and H4 was observed |  |  |  |  | 
CN1CC[C@H](c2c(O)cc(O)c3c(=O)cc(-c4ccccc4Cl)oc23)[C@H](O)C1 [FP, Flavopiridol] |  | minimal effect | modestly increased ERK activation | ≤ 10 | susceptible to apoptosis | clear reduction in E2F binding
